Assay results as given in patent US12151998B2, “Solid drug form of N-(2,6-bis(1-methylethyl)phenyl)-N′-((1-(4-(dimethylamino)phenyl)cyclopentyl)methyl)urea hydrochloride and compositions, methods and kits related thereto” (The Regents of the University of Michigan, priority 2014, dated 2024).
Where a name gives a salt, the structure may show the parent alone.

Key:
ACC = conditions: cited from earlier work
[1] = Enhanced exposure with stomach acidification: pharmacokinetics of ATR-101 tablets in dogs; format: in vivo; conditions: male beagle dogs, single 125 mg ATR-101 tablet oral; pretreated with pentagastrin compared to pretreatment with famotidine
Protocol: To examine pharmacokinetics and exposures of ATR-101 tablets prepared according to Example 6, an in vivo study was carried out in dogs following pretreatment with pentagastrin to decrease stomach pH, or famotidine to increase the stomach pH.
The same cohort of dogs was used in both treatments and included a 5-day wash-out between the treatment arms. Male beagle dogs (approximately 6.5-12.5 kg, n=6) were fasted overnight prior to dosing and through the first 4 hours of blood sample collection. For the pentagastrin arm, the animals were pretreated with a single intramuscular injection of pentagastrin (0.06 mg/mL at a dose level of […] and a dose volume of 0.01 mL/kg) 16 to 22 minutes prior to test article administration. For the famotidine arm, animals were pretreated with a single oral tablet dose of 20 mg famotidine at 59 to 60 minutes prior to tablet administration.
Following tablet administration, each animal received 30 mL of tap water via oral gavage. Animals were treated with a single 125 mg ATR-101 tablet by oral administration. The tablet was made as described in Example 6 above, and contained the ingredients listed in Table 6, but with the amount of ATR-101 at 125 mg (as free base) rather than 500 mg and the remaining ingredients reduced by the same weight percentage. […] ATR-101 concentrations were determined by LC/MSMS.

SMILES | delay of disease progression (average) (ACC; ACC patients that derive a therapeutic benefit) | patients with increased progression-free survival (ACC; ACC patients, fraction of patients) | increase in systemic exposure [1]
Clc1ccc(C(c2ccccc2Cl)C(Cl)Cl)cc1 (stereo not drawn) [mitotane] | five | one-quarter to one-third | –
CC(C)c1cccc(C(C)C)c1NC(=O)NCC1(c2ccc(N(C)C)cc2)CCCC1 [ATR-101, N-(2,6-bis(1-methylethyl)phenyl)-N′-((1-(4-(dimethylamino)phenyl)cyclopentyl)methyl)urea hydrochloride] | – | – | 57%
